Reference: ChEMBL document CHEMBL2331254, “Pyrrolopyrimidine inhibitors of DNA gyrase B (GyrB) and topoisomerase IV (ParE), Part II: development of inhibitors with broad spectrum, Gram-negative antibacterial activity” (Bioorg Med Chem Lett, 2013)
pKi: −log10 of the molar value. ≈ marks a conversion by molar mass, not a printed value.

Columns and labels:
[1] = Inhibition of Escherichia coli parE assessed as release of inorganic phosphate from ATP hydrolysis after 30 mins by coupled spectrophotometric assay
[2] = Inhibition of Francisella tularensis GyrB assessed as release of inorganic phosphate from ATP hydrolysis after 30 mins by coupled spectrophotometric assay
[3] = tested on: Escherichia coli; assay: Antibacterial activity against Escherichia coli BW25113 harboring deltatolC by broth microdilution method; format: functional
[4] = tested on: Escherichia coli; assay: Antibacterial activity against permeabilized Escherichia coli IBAS849 by broth microdilution method; format: functional
[5] = tested on: Escherichia coli; assay: Antibacterial activity against wild type Escherichia coli ATCC 25922 by broth microdilution method; format: functional
[6] = tested on: Staphylococcus aureus; assay: Antibacterial activity against Staphylococcus aureus ATCC 13709 by broth microdilution method; format: functional
[7] = Inhibition of Escherichia coli GyrB assessed as release of inorganic phosphate from ATP hydrolysis after 30 mins by coupled spectrophotometric assay
[8] = tested on: Pseudomonas aeruginosa; assay: Antibacterial activity against Pseudomonas aeruginosa PAO1 by broth microdilution method; format: functional
[9] = tested on: Acinetobacter baumannii; assay: Antibacterial activity against Acinetobacter baumannii ATCC 19606 by broth microdilution method; format: functional; conditions: ATCC 19606 = CIP 70.34 = JCM 6841
[10] = tested on: Klebsiella pneumoniae; assay: Antibacterial activity against Klebsiella pneumoniae ATCC 700603 by broth microdilution method; format: functional
[11] = tested on: Escherichia coli; assay: Antibacterial activity against wild type Escherichia coli ATCC 25922 by broth microdilution method in presence of 20% mouse serum; format: functional
[12] = tested on: Haemophilus influenzae; assay: Antibacterial activity against Haemophilus influenzae ATCC 49247 by broth microdilution method; format: functional
[13] = tested on: Streptococcus pneumoniae; assay: Antibacterial activity against Streptococcus pneumoniae ATCC 51916 by broth microdilution method; format: functional
[14] = tested on: Staphylococcus aureus; assay: Antibacterial activity against Staphylococcus aureus ATCC 13709 by broth microdilution method in presence of 20% mouse serum; format: functional
[15] = Inhibition of Francisella tularensis parE assessed as release of inorganic phosphate from ATP hydrolysis after 30 mins by coupled spectrophotometric assay

SMILES	pKi [1]	pKi [2]	MIC [3]	MIC [4]	MIC [5]	MIC [6]	pKi [7]	MIC [8]	MIC [9]	MIC [10]	MIC [11]	MIC [12]	MIC [13]	MIC [14]	pKi [15]
CCNC(=O)NC1CN(c2nc(Sc3cnc4nccnc4c3)nc3[nH]c(CC)c(Cl)c23)C1	8.70	> 9.00	> 64 µg/mL	> 64 µg/mL	> 64 µg/mL	> 64 µg/mL									
CCc1[nH]c2nc(Sc3cnc4nccnc4c3)nc(N3CC(NS(C)(=O)=O)C3)c2c1Cl	8.05	> 9.00		32 µg/mL (≈ 65.2 µM)	> 64 µg/mL	4 µg/mL (≈ 8.15 µM)									
CCc1[nH]c2nc(Sc3cnc4nccnc4c3)nc(N3CC(NC(=O)C4CC4)C3)c2c1Cl	8.52	> 9.00	4 µg/mL (≈ 8.32 µM)	8 µg/mL (≈ 16.6 µM)	> 64 µg/mL	1 µg/mL (≈ 2.08 µM)									
CCc1[nH]c2nc(Sc3cnc4nccnc4c3)nc(N3CC(NC(=O)COC)C3)c2c1Cl	8.00	> 9.00	2 µg/mL (≈ 4.12 µM)	4 µg/mL (≈ 8.25 µM)	> 64 µg/mL	0.25 µg/mL (≈ 0.515 µM)									
CCc1[nH]c2nc(Sc3cnc4nccnc4c3)nc(N3CC(NC(=O)c4cnccn4)C3)c2c1Cl	8.05	> 9.00	4 µg/mL (≈ 7.71 µM)	8 µg/mL (≈ 15.4 µM)	64 µg/mL (≈ 123 µM)	1 µg/mL (≈ 1.93 µM)									
CCc1[nH]c2nc(Sc3cnc4nccnc4c3)nc(N3C[C@@H]4[C@H](C3)[C@H]4NC(=N)N)c2c1Cl	> 9.00		2 µg/mL (≈ 4.16 µM)	2 µg/mL (≈ 4.16 µM)	64 µg/mL (≈ 133 µM)	0.25 µg/mL (≈ 0.52 µM)									
CCc1[nH]c2nc(Sc3cnc4nccnc4c3)nc(N3C[C@@H]4[C@H](C3)[C@@]4(N)CO)c2c1Cl	8.70	> 9.00	0.5 µg/mL (≈ 1.07 µM)	4 µg/mL (≈ 8.53 µM)	64 µg/mL (≈ 136 µM)	0.25 µg/mL (≈ 0.533 µM)									
CCc1[nH]c2nc(Sc3ccc4nccnc4c3)nc(N3C[C@@H]4[C@@H](N)[C@@H]4C3)c2c1Cl	9.00		0.25 µg/mL (≈ 0.571 µM)	0.25 µg/mL (≈ 0.571 µM)	> 64 µg/mL	≤ 0.13 µg/mL	> 9.30								
CCc1[nH]c2nc(Sc3ccc4cccnc4c3)nc(N3C[C@@H]4[C@@H](N)[C@@H]4C3)c2c1Cl	8.22		1 µg/mL (≈ 2.29 µM)	4 µg/mL (≈ 9.15 µM)	> 64 µg/mL	0.25 µg/mL (≈ 0.572 µM)	9.00								
CCc1[nH]c2nc(Sc3ccc4ccc[n+]([O-])c4c3)nc(N3C[C@@H]4[C@@H](N)[C@@H]4C3)c2c1Cl	> 9.00		0.25 µg/mL (≈ 0.552 µM)	1 µg/mL (≈ 2.21 µM)	8 µg/mL (≈ 17.7 µM)	≤ 0.13 µg/mL	> 9.30								
CCc1[nH]c2nc(Sc3cnc4ccc[n+]([O-])c4c3)nc(N3C[C@@H]4[C@@H](N)[C@@H]4C3)c2c1Cl	8.77		0.13 µg/mL (≈ 0.286 µM)	0.13 µg/mL (≈ 0.286 µM)	2 µg/mL (≈ 4.41 µM)	0.03 µg/mL (≈ 0.0661 µM)	> 9.52	4 µg/mL (≈ 8.81 µM)	4 µg/mL (≈ 8.81 µM)	32 µg/mL (≈ 70.5 µM)	4 µg/mL	2 µg/mL (≈ 4.41 µM)	0.25 µg/mL (≈ 0.551 µM)	0.13 µg/mL	8.60
CCc1[nH]c2nc(Sc3cnc4c(c3)c(=O)ncn4C)nc(N3C[C@@H]4[C@@H](N)[C@@H]4C3)c2c1Cl	8.52		2 µg/mL (≈ 4.26 µM)	2 µg/mL (≈ 4.26 µM)	32 µg/mL (≈ 68.2 µM)	0.5 µg/mL (≈ 1.07 µM)	8.30								
CCc1[nH]c2nc(Sc3cccnc3)nc(NC[C@H](C)O)c2c1Cl		6.77		32 µg/mL (≈ 87.9 µM)	> 64 µg/mL	4 µg/mL (≈ 11 µM)									6.76
CCc1[nH]c2nc(Sc3cnc4nccnc4c3)nc(NC[C@H](C)O)c2c1Cl		7.37	4 µg/mL (≈ 9.62 µM)	8 µg/mL (≈ 19.2 µM)	> 64 µg/mL	1 µg/mL (≈ 2.4 µM)									7.64
CCc1[nH]c2nc(Sc3cnc4nccnc4c3)nc(N3CC(O)C3)c2c1Cl		8.15	2 µg/mL (≈ 4.83 µM)	4 µg/mL (≈ 9.66 µM)	> 64 µg/mL	0.25 µg/mL (≈ 0.604 µM)									8.30
CCc1[nH]c2nc(Sc3cnc4nccnc4c3)nc(N3CC(C)(N)C3)c2c1Cl	7.16	7.80	16 µg/mL (≈ 37.5 µM)	16 µg/mL (≈ 37.5 µM)	> 64 µg/mL	4 µg/mL (≈ 9.37 µM)									
CCc1[nH]c2nc(Sc3cnc4nccnc4c3)nc(N3CCC(N)C3)c2c1Cl (centres undefined)	7.96	> 9.00	2 µg/mL (≈ 4.68 µM)	4 µg/mL (≈ 9.37 µM)	32 µg/mL (≈ 75 µM)	1 µg/mL (≈ 2.34 µM)									
CCc1[nH]c2nc(Sc3cnc4nccnc4c3)nc(N3CCC(NC)C3)c2c1Cl (centres undefined)	7.40	8.70	8 µg/mL (≈ 18.1 µM)	16 µg/mL (≈ 36.3 µM)	> 64 µg/mL	2 µg/mL (≈ 4.54 µM)									
CCc1[nH]c2nc(Sc3cnc4nccnc4c3)nc(N3CCCC(N)C3)c2c1Cl (centres undefined)	6.88	8.15	16 µg/mL (≈ 36.3 µM)	32 µg/mL (≈ 72.6 µM)	> 64 µg/mL	8 µg/mL (≈ 18.1 µM)									
